In PMC11134331, “Cell-active small molecule inhibitors validate the SNM1A DNA repair nuclease as a cancer target” (Chemical Science, 2024):

Test system: γH2AX and EGFP-SNM1A foci in U2OS cells
Assay: microscopic analysis of damage-induced subnuclear foci, U2OS cells expressing EGFP-SNM1A
Format: cell-based, human
Procedure: To this end, cells stably expressing N-terminally EGFP-tagged SNM1A (EGFP-SNM1A) were treated with 50 μM cisplatin alone, 19 (50 μM), or with a combination of both compounds. It is known that on treatment of cells with DNA crosslinking agents, SNM1A forms subnuclear foci that are associated with ongoing sites of DNA repair.[37] […] As previously established, cisplatin treatment efficiently induces co-localisation of EGFP-SNM1A foci and γH2AX foci within 4 hours following treatment, marking sites of cisplatin damage and its repair (Fig. 6C–E). These largely resolved 24 hours post-treatment, again consistent with previous studies.[16,37] Co-treatment of cells with 19 and cisplatin saw a robust induction of SNM1A foci, consistent with the SNM1A activity being dispensable for its localisation to sites of crosslink repair, and γH2AX foci formation (Fig. 6C–E). […] This clear persistence of repair intermediates and trapping of EGFP-SNM1A at the sites of these repair intermediate implies that 19 engages with SNM1A in a cellular context, delaying the completion of cisplatin crosslink repair, which, in turn, results in the sensitisation of cells to cisplatin.
To assess the number of nuclear foci following cisplatin/inhibitor treatments, cells were plated in glass bottom dishes (as above) and allowed to attach. Following treatment, cells were fixed with 4% (v/v) formaldehyde in PBS, blocked with immunofluoresence (IF) blocking buffer (5% horse serum, 1% saponin in PBS) for 1 h, then incubated with primary antibodies at the desired concentrations in IF blocking buffer (overnight, 4 °C). After washing cells three times with PBS, cells were incubated with secondary antibodies for 2–4 hours in IF blocking buffer, washed a further 3 times with PBS then stained with Hoechst 333 258 (1 μg mL^−1 in PBS) for 30 minutes before a further three washes (all washes and incubations were performed at room temperature, unless otherwise stated).
Confocal images were obtained with a Plan APO 63X 1.40NA oil immersion objective, a pinhole setting of 1 AU, bandpass emission settings of 410–468 nm for Hoechst, 490–544 nm for EGFP, 579–624 nm for RFP or Alexa 568, and 633–695 nm for Alexa 647, a projected pixel dimension of around 110 nm × 110 nm, a pixel dwell time of 1.35 μs, and with a line averaging setting of 2. In order to ensure sufficient cell numbers (N > 300), images were acquired in a tiled 5 × 5 format corresponding to an image area of about 0.65 mm × 0.65 mm. Images were imported into ImageJ and foci were counted using a macro adjusting for staining levels between experiments. Anti-γH2AX antibodies were a mouse monoclonal (Millipore; JBW301).

## C[C@H](Nc1nc(NCc2ccco2)nc2ccc(Cl)cc12)C(=O)NO [compound 19]
U2OS EGFP-SNM1A, 50 μM compound + 50 μM cisplatin
  EGFP-SNM1A and γH2AX foci on co-treatment with cisplatin: persisted at 24 hours
U2OS EGFP-SNM1A, 50 μM compound alone
  induction of EGFP-SNM1A and γH2AX foci by compound alone: did not induce
U2OS, cisplatin treated with pretreatment with 50 μM 19
  average number of γH2AX foci at 24 hours: 81.6 ± 1.7 foci
U2OS, cisplatin treated, 24 hours
  increase of average γH2AX foci number following pretreatment: 4 fold
